Assay results: PMC12305662, “Fragment-Based Development of Small Molecule Inhibitors Targeting Mycobacterium tuberculosis Cholesterol Metabolism” (Journal of Medicinal Chemistry, 2025)
Read-outs that look alike come from different tables or passages of the source.

Tests used:
Mtb H37Rv [1] = test: Extracellular Mtb growth on cholesterol, MABA MIC99; assay type: cell-based, Mycobacterium tuberculosis; details: Mycobacterium tuberculosis, H37RV
[2] = test system: uninfected THP-1 macrophages; test: THP-1 cytotoxicity (ATPLite); details: concentrations up to 50 μM
Mtb H37Rv [3] = test: Depletion of intracellular ATP (BacTiter Glo), Mtb on cholesterol; assay type: cell-based, Mycobacterium tuberculosis; details: 2 weeks post-compound treatment
CYP142 = CYP142 (Mycobacterium tuberculosis, UniProt P9WPL5)
Chain of CYP142 (P9WPL5 whole entry): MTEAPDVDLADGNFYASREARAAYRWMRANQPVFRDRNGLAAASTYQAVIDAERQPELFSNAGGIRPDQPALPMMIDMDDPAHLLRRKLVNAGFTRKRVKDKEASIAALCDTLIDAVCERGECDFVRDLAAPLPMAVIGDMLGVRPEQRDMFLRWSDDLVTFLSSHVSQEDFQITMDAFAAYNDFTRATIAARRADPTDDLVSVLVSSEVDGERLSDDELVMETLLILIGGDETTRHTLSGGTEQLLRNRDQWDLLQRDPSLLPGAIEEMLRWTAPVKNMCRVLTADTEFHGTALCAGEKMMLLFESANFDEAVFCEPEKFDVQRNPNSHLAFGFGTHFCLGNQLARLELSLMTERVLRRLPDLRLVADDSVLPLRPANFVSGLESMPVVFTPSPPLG

Compound: COc1ccc(CNc2ccc(Cc3ccncc3)cc2)cc1 [5m, N-(4-Methoxybenzyl)-4-(pyridin-4-ylmethyl)aniline]
- MIC99 (Mtb H37Rv [1]; 336 h, cholesterol as sole carbon source, 2 weeks post-compound treatment, read-out: MABA-MIC99 (W2) H37Rv, cholesterol): 1.5 µM
- MIC99 (Mtb H37Rv [1]; 336 h, cholesterol as sole carbon source, 2 weeks, conversion of 1.5 μM, read-out: MIC99 H37Rv, cholesterol): ~0.46 µg/mL
- MIC99 (Mtb H37Rv [1]; read-out: MIC99, growth of Mtb in extracellular assays): 0.4 to 1.5 µM
- THP-1 cytotoxicity in words [2]: no effect on THP-1 cell viability
- IC50 (Mtb H37Rv [3]; Mycobacterium tuberculosis, H37RV, 336 h, H37Rv, bovine serum albumin, read-out: ATP IC50 (W2), cholesterol media with BSA): 2300 nM
- IC50 (Mtb H37Rv [3]; Mycobacterium tuberculosis, H37RV, 336 h, H37Rv, casitone, read-out: ATP IC50 (W2), cholesterol media with casitone): 1500 nM
- IC50 (Mtb H37Rv [3]; Mycobacterium tuberculosis, H37RV, 336 h, cholesterol as sole carbon source, read-out: ATP-IC50 (W2) H37Rv, cholesterol): 1200 nM
- IC50 (Mtb H37Rv [3]; cholesterol as sole carbon source, read-out: ATP-IC50 (W2) H37Rv, cholesterol): 1100 nM
- Kd (CYP142): 80 nM
- ΔΔG [5m-1a], CYP142 (CYP142; proportion of binding affinity attributed to the 1a-ii hotspot): 0.2
